In US9539257B2, “Method of treating cancer” (NOVARTIS AG, priority 2009, dated 2017):

Assays:
[1] = test system: HLA-DQB1*0202; conditions: Exploratory study
Excerpt: (§1) Germline DNA was extracted from peripheral blood (QiAmp DNA Blood Kit, Qiagen, Valencia, Calif.). This study evaluated candidate gene and genome-wide screening, performed in parallel, to detect case-control association signals in the exploratory cohort. Class I and II HLA genes (seven genes to 4-digit and three genes to 2-digit resolution) were typed by Laboratory Corporation of America (Burlington, N.C.) and Histogenetics (Ossining, N.Y.), or at GSK using the LABType® SSO Typing Test (One Lambda, Canoga Park, Calif.). […] Whole genome screen genotyping on the Illumina Human 1M-Duo platform was also conducted (Expression Analysis, Durham, N.C.).
(§2) For the exploratory study, initial analysis of the GWAS was done using logistic regression, carried out in PLINK (Purcell S, et al. American Journal of Human Genetics 2007; 81, 559-575) using the genotypic test option when three genotype classes were observed, or the additive test option when only two genotype classes were observed. […] In addition to the genotype term, all models included baseline ALT xULN, treatment group (for the exploratory study), and a sufficient number of principal components to account for potential confounding by population structure. Principal components were obtained from EIGENSOFT (Patterson N. et al. PLoS Genetics 2006; 2: e190), using study subjects and HapMap founders.
(§3) Genetic markers selected for confirmatory were required to achieve pre-defined p-value thresholds in the exploratory analysis of p≦0.05 for HLA markers, p≦0.01 for candidate gene markers and p≦10-4 for whole genome screen SNPs. For markers confirmed at p≦0.01, measures of potential clinical utility were evaluated. An allele or genotype(s) was designated which conferred a higher risk of ALT elevation and this was compared to the non-risk allele(s)/genotype(s) and the odds ratio (OR), positive predictive value (PPV), and negative predictive value (NPV) calculated.

[2] = test system: HLA-DQA1*0201
Excerpt: as §1, §2, §3

[3] = test system: HLA-DRB1*0701; conditions: Exploratory study
Excerpt: as §1, §2, §3

[4] = test system: TNXB rs12153855; test: ALT case-control genetic association, exploratory study; format: in vivo, human; conditions: TNXB rs12153855 CC/CT
Excerpt: as §1, §2, §3

[5] = On-treatment liver chemistry (ALT, TBL, ALP), confirmatory study PGx population, lapatinib plus letrozole phase III trial; format: in vivo, human
[6] = test system: UGT1A1*28; conditions: exploratory
Method: The two phenotypes that were evaluated were maximum on-treatment liver chemistry values for ALT and TBL with respect to the upper limit of normal. These phenotypes were evaluated separately in case-control and quantitative trait analyses and jointly in a combined case-control analysis. ALT and TBL cases were defined as maximum on-treatment elevations of ≧3×ULN and ≧1.5×ULN, respectively, and control subjects were defined as maximum on-treatment ALT or TBL of ≦1×ULN.
2) As genetic understanding of drug-induced liver injury is limited, a comprehensive drug induced liver injury (DILI) panel, developed by GSI in consultation with external liver experts was also evaluated. This DILI panel is comprised of approximately 6500 single nucleotide polymorphisms (SNPs) in 270 gene regions derived from the postulated mechanisms involved in the pathophysiology of DILI. In both approaches, genetic variation in each gene region was investigated using tag SNPs selected from the International HapMap project and/or high density SNP coverage consisting of all functional SNPs with a previously recorded genotype to phenotype correlation. […] Evaluation of HLA genes focused on a subset of the total number of patients consisting of all ALT cases (N=47) and matched controls (N=47).

[7] = test system: TNXB rs12153855; test: ALT case-control genetic association, confirmatory study (lapatinib plus letrozole arm); format: in vivo, human; conditions: TNXB rs12153855 CC/CT
Excerpt: as §1, §2, §3

[8] = Confirmatory Study ALT Cases (N=24)
[9] = Confirmatory Study ALT Cases with HLA Data Available, at time of maximum ALT
[10] = Confirmatory Study ALT Controls (N=155)
[11] = Confirmatory Study PGx Population (1 trial, N=374), lapatinib combination with letrozole
[12] = Confirmatory Study PGx Population (N=374), lapatinib + letrozole
[13] = lapatinib plus letrozole arm of the confirmatory study

## CS(=O)(=O)CCNCc1ccc(-c2ccc3ncnc(Nc4ccc(OCc5cccc(F)c5)c(Cl)c4)c3c2)o1 [lapatinib, N-(3 chloro-4-{[(3-fluorophenyl)methyl]oxy}phenyl)-6-[5-({[2 (methylsulfonyl)ethyl]amino}methyl)-2-furanyl]-4-quinazolinamine bis(4 methylbenzenesulfonate)monohydrate]
[1]; ALT cases
  Carriage: cases (%): (37%)
  Carriage: cases (n/N): 13/35
[1]; ALT controls
  Carriage: controls (%): (17%)
  Carriage: controls (n/N): 47/281
[2]; DQA1*0201 carriage, ALT cases (>3xULN), Exploratory study
  Carriage: cases (n/N): 14/35
[2]; DQA1*0201 carriage, ALT controls, Exploratory study
  Carriage: controls (n/N): 58/283
[2]; Exploratory Study ALT Cases
  % that carry DQA1*0201, Cholestatic: 25%
  % that carry DQA1*0201, Hepatocellular: 43%
  % that carry DQA1*0201, Mixed: 40%
  N that carry DQA1*0201, Cholestatic: 1
  N that carry DQA1*0201, Hepatocellular: 9
  N that carry DQA1*0201, Mixed: 4
[3]; ALT cases
  Carriage: cases (%): (40%)
  Carriage: cases (n/N): 14/35
[3]; ALT controls
  Carriage: controls (%): (21%)
  Carriage: controls (n/N): 59/283
[4]; ALT cases
  Carriage: cases (%): (35%)
  Carriage: cases (n/N): 12/34
[4]; ALT controls
  Carriage: controls (%): (17%)
  Carriage: controls (n/N): 47/281
[5]; [8]
  Maximum on treatment ALT xULN: Mean(SD): 6.50(3.73) xULN
  Maximum on treatment ALT xULN: Median: 4.96 xULN
[5]; [9]
  N of ALT cases with Cholestatic injury type: 3
  N of ALT cases with Hepatocellular injury type: 12
  N of ALT cases with Mixed injury type: 9
[5]; [10]
  Maximum on treatment ALT xULN: Mean(SD): 0.66(0.19) xULN
  Maximum on treatment ALT xULN: Median: 0.65 xULN
[5]; [11]
  Maximum on treatment ALT xULN: Mean(SD): 1.53 (1.97) xULN
  Maximum on treatment ALT xULN: Median: 0.91 xULN
[5]; [12]
  Maximum on treatment ALT > 3 xULN (%): 9.4%
  Maximum on treatment ALT > 5 xULN (%): 5.1%
  Maximum on treatment ALT > 8 xULN (%): 2.4%
  Maximum on treatment TBL xULN: Mean(SD): 0.93 (1.48) xULN
  Maximum on treatment TBL xULN: Median: 0.76 xULN
[5]; [13]
  hepatobiliary adverse event cases (ALT>3x and TBL >1.5xULN, irrespective of baseline ALT), number: Fifteen
  patients adjudicated by liver experts as probable Hy's Rule cases, number: two
[6]; TBL cases (N=60)
  TBL cases with TA7/TA7 genotype: Thirty five
  TBL cases with at least one TA7 allele: 82%
[6]; controls (N=396)
  TBL controls with TA7/TA7 genotype: 5%
  TBL controls with at least one TA7 allele: 48%
[7]; ALT cases
  Carriage: cases (%): (63%)
  Carriage: cases (n/N): 15/24
[7]; ALT controls
  Carriage: controls (%): (19%)
  Carriage: controls (n/N): 29/155
